Measurements reported in patent publication US12702691B2, “Extract of an herbal composition as antimicrobial and/or antibiofilm agent” (ALPHANOSOS S.A.S., priority 2016, dated 2026).

Experiments:
[1] = test system: B-A21; experiment: Planktonic growth with extract and antibiotic relative to growth without both (Example 14); assay type: cell-based
Description: (§1) Starting from the herbal composition, the corresponding water extracts (or processed samples) was prepared according to the previously described Method B using 2.06 g of the above herbal composition with 40 mL water with 100 g/L sucrose for water extraction and including the decantation step before filtration. In an independent water extract preparation without sucrose, it has been measured that 2.06 g/40 mL of herbal composition corresponds to 14.5 g/L as deduced from the weight of the lyophilized dry herbal extract.
(§2) In Example 14 we calculate the growth of the bacteria in presence of antibiotic and/or herbal mix relative to the growth in the absence of both antibiotic and herbal mix extract.

[2] = test system: B-A17; experiment: as above; assay type: cell-based
Description: as §1, §2

[3] = M[20C]-576 0 μg/mL, antibiotic 3.91 μg/mL
[4] = M[20C]-576 0 μg/mL, antibiotic 7.81 μg/mL
[5] = M[20C]-576 0 μg/mL, antibiotic 15.63 μg/mL
[6] = M[20C]-576 0 μg/mL, antibiotic 31.25 μg/mL
[7] = M[20C]-576 0 μg/mL, antibiotic 62.50 μg/mL
[8] = M[20C]-576 0 μg/mL, antibiotic 125 μg/mL
[9] = M[20C]-576 0 μg/mL, antibiotic 250 μg/mL
[10] = M[20C]-576 0 μg/mL, antibiotic 500 μg/mL
[11] = M[20C]-576 0 μg/mL, antibiotic 1000 μg/mL
[12] = M[20C]-576 0 μg/mL, antibiotic 2000 μg/mL
[13] = M[20C]-576 0 μg/mL, antibiotic 4000 μg/mL
[14] = M[20C]-576 90.6 μg/mL, antibiotic 3.91 μg/mL
[15] = M[20C]-576 90.6 μg/mL, antibiotic 7.81 μg/mL
[16] = M[20C]-576 90.6 μg/mL, antibiotic 15.63 μg/mL
[17] = M[20C]-576 90.6 μg/mL, antibiotic 31.25 μg/mL
[18] = M[20C]-576 90.6 μg/mL, antibiotic 62.50 μg/mL
[19] = M[20C]-576 90.6 μg/mL, antibiotic 125 μg/mL
[20] = M[20C]-576 90.6 μg/mL, antibiotic 250 μg/mL
[21] = M[20C]-576 90.6 μg/mL, antibiotic 500 μg/mL
[22] = M[20C]-576 90.6 μg/mL, antibiotic 1000 μg/mL
[23] = M[20C]-576 90.6 μg/mL, antibiotic 2000 μg/mL
[24] = M[20C]-576 90.6 μg/mL, antibiotic 4000 μg/mL
[25] = M[20C]-576 181.3 μg/mL, antibiotic 3.91 μg/mL
[26] = M[20C]-576 181.3 μg/mL, antibiotic 7.81 μg/mL
[27] = M[20C]-576 181.3 μg/mL, antibiotic 15.63 μg/mL
[28] = M[20C]-576 181.3 μg/mL, antibiotic 31.25 μg/mL
[29] = M[20C]-576 181.3 μg/mL, antibiotic 62.50 μg/mL
[30] = M[20C]-576 181.3 μg/mL, antibiotic 125 μg/mL
[31] = M[20C]-576 181.3 μg/mL, antibiotic 250 μg/mL
[32] = M[20C]-576 181.3 μg/mL, antibiotic 500 μg/mL
[33] = M[20C]-576 181.3 μg/mL, antibiotic 1000 μg/mL
[34] = M[20C]-576 181.3 μg/mL, antibiotic 2000 μg/mL
[35] = M[20C]-576 181.3 μg/mL, antibiotic 4000 μg/mL

Question: Which results are given for `CC1(C)S[C@@H]2[C@H](NC(=O)[C@H](N)c3ccccc3)C(=O)N2[C@H]1C(=O)O` [Ampicillin]?
Answer: planktonic growth relative to the growth in the absence of both extract and antibiotic [1, 3]: 153%; planktonic growth relative to the growth in the absence of both extract and antibiotic [1, 4]: 132%; planktonic growth relative to the growth in the absence of both extract and antibiotic [1, 5]: 131%; planktonic growth relative to the growth in the absence of both extract and antibiotic [1, 6]: 132%; planktonic growth relative to the growth in the absence of both extract and antibiotic [1, 7]: 116%; planktonic growth relative to the growth in the absence of both extract and antibiotic [1, 8]: 150%; planktonic growth relative to the growth in the absence of both extract and antibiotic [1, 9]: 113%; planktonic growth relative to the growth in the absence of both extract and antibiotic [1, 10]: 112%; planktonic growth relative to the growth in the absence of both extract and antibiotic [1, 11]: 106%; planktonic growth relative to the growth in the absence of both extract and antibiotic [1, 12]: −1%; planktonic growth relative to the growth in the absence of both extract and antibiotic [1, 13]: 0%; planktonic growth relative to the growth in the absence of both extract and antibiotic [1, 14]: 108%; planktonic growth relative to the growth in the absence of both extract and antibiotic [1, 15]: 83%; planktonic growth relative to the growth in the absence of both extract and antibiotic [1, 16]: 82%; planktonic growth relative to the growth in the absence of both extract and antibiotic [1, 17]: 82%; planktonic growth relative to the growth in the absence of both extract and antibiotic [1, 18]: 74%; planktonic growth relative to the growth in the absence of both extract and antibiotic [1, 19]: 83%; planktonic growth relative to the growth in the absence of both extract and antibiotic [1, 20]: 75%; planktonic growth relative to the growth in the absence of both extract and antibiotic [1, 21]: 83%; planktonic growth relative to the growth in the absence of both extract and antibiotic [1, 22]: 0%; planktonic growth relative to the growth in the absence of both extract and antibiotic [1, 23]: 0%; planktonic growth relative to the growth in the absence of both extract and antibiotic [1, 24]: 0%; planktonic growth relative to the growth in the absence of both extract and antibiotic [1, 25]: 44%; planktonic growth relative to the growth in the absence of both extract and antibiotic [1, 26]: 63%; planktonic growth relative to the growth in the absence of both extract and antibiotic [1, 27]: 70%; planktonic growth relative to the growth in the absence of both extract and antibiotic [1, 28]: 69%; planktonic growth relative to the growth in the absence of both extract and antibiotic [1, 29]: 70%; planktonic growth relative to the growth in the absence of both extract and antibiotic [1, 30]: 62%; planktonic growth relative to the growth in the absence of both extract and antibiotic [1, 31]: 62%; planktonic growth relative to the growth in the absence of both extract and antibiotic [1, 32]: 61%; planktonic growth relative to the growth in the absence of both extract and antibiotic [1, 33]: −2%; planktonic growth relative to the growth in the absence of both extract and antibiotic [1, 34]: −3%; planktonic growth relative to the growth in the absence of both extract and antibiotic [1, 35]: −2%; planktonic growth relative to the growth in the absence of both extract and antibiotic [2, 3]: 176%; planktonic growth relative to the growth in the absence of both extract and antibiotic [2, 4]: 176%; planktonic growth relative to the growth in the absence of both extract and antibiotic [2, 5]: 148%; planktonic growth relative to the growth in the absence of both extract and antibiotic [2, 6]: 131%; planktonic growth relative to the growth in the absence of both extract and antibiotic [2, 7]: 112%; planktonic growth relative to the growth in the absence of both extract and antibiotic [2, 8]: 2%; planktonic growth relative to the growth in the absence of both extract and antibiotic [2, 9]: 0%; planktonic growth relative to the growth in the absence of both extract and antibiotic [2, 10]: 0%; planktonic growth relative to the growth in the absence of both extract and antibiotic [2, 11]: 0%; planktonic growth relative to the growth in the absence of both extract and antibiotic [2, 12]: 0%; planktonic growth relative to the growth in the absence of both extract and antibiotic [2, 13]: −1%; planktonic growth relative to the growth in the absence of both extract and antibiotic [2, 14]: 64%; planktonic growth relative to the growth in the absence of both extract and antibiotic [2, 15]: 76%; planktonic growth relative to the growth in the absence of both extract and antibiotic [2, 16]: 75%; planktonic growth relative to the growth in the absence of both extract and antibiotic [2, 17]: 58%; planktonic growth relative to the growth in the absence of both extract and antibiotic [2, 18]: 18%; planktonic growth relative to the growth in the absence of both extract and antibiotic [2, 19]: 1%; planktonic growth relative to the growth in the absence of both extract and antibiotic [2, 20]: 0%; planktonic growth relative to the growth in the absence of both extract and antibiotic [2, 21]: 0%; planktonic growth relative to the growth in the absence of both extract and antibiotic [2, 22]: 0%; planktonic growth relative to the growth in the absence of both extract and antibiotic [2, 23]: 0%; planktonic growth relative to the growth in the absence of both extract and antibiotic [2, 24]: 0%; planktonic growth relative to the growth in the absence of both extract and antibiotic [2, 25]: 52%; planktonic growth relative to the growth in the absence of both extract and antibiotic [2, 26]: 53%; planktonic growth relative to the growth in the absence of both extract and antibiotic [2, 27]: 52%; planktonic growth relative to the growth in the absence of both extract and antibiotic [2, 28]: 31%; planktonic growth relative to the growth in the absence of both extract and antibiotic [2, 29]: 7%; planktonic growth relative to the growth in the absence of both extract and antibiotic [2, 30]: −4%; planktonic growth relative to the growth in the absence of both extract and antibiotic [2, 31]: −4%; planktonic growth relative to the growth in the absence of both extract and antibiotic [2, 32]: −4%; planktonic growth relative to the growth in the absence of both extract and antibiotic [2, 33]: −4%; planktonic growth relative to the growth in the absence of both extract and antibiotic [2, 34]: −5%; planktonic growth relative to the growth in the absence of both extract and antibiotic [2, 35]: −1%
